According to the supplement of paper PMC10307832:

How the values were obtained:
Assay in all cases: relative viability (nuclei count vs DMSO), 5 days (fraction); higher = more cells survive
[1] = compound: CN(C)C(=N)NC(=N)N [Metformin] + CC(=O)Nc1cccc(-n2c(=O)n(C3CC3)c(=O)c3c(Nc4ccc(I)cc4F)n(C)c(=O)c(C)c32)c1 [Trametinib] (partner 0.02 µM)
How it was run: (§1)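 Cells from lung cancer lines were seeded into 1536-well plates and, one day later, dosed by pin tool. Treatments were either a single drug or a fixed dose of an anchor drug with five library-drug doses (not always all listed) in √10 steps. After 5 days, nuclei were stained in a one-step fixation (final 0.05% Triton X-100, 1% formaldehyde, 1 ug/ml Hoechst) and counted on 4× images, and relative viability is the treated-to-vehicle nuclei ratio, as the median of duplicate plates.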

[2] = compound: CN(C)C(=N)NC(=N)N [Metformin] + CS(=O)(=O)N1CCN(Cc2cc3nc(-c4cccc5[nH]ncc45)nc(N4CCOCC4)c3s2)CC1 [Pictilisib] (partner 1 µM)
How it was run: as §1

[3] = compound: CN(C)C(=N)NC(=N)N [Metformin] + NC(=O)Nc1cc(-c2cccc(F)c2)sc1C(=O)N[C@H]1CCCNC1 [AZD7762] (partner 0.2 µM)
How it was run: as §1

[4] = compound: N#CC1(c2ccc(NC(=O)c3cccnc3NCc3ccncc3)cc2)CCCC1 [Apatinib] + N=C(N)NC(=N)NCCc1ccccc1 [Phenformin] (partner 250 µM)
How it was run: as §1

Row | Cell Line | relative viability ([1]; first compound 10 µM) | relative viability ([1]; first compound 31.62 µM) | relative viability ([1]; first compound 100 µM) | relative viability ([1]; first compound 316.23 µM) | relative viability ([1]; first compound 1000 µM) | relative viability ([2]; first compound 10 µM) | relative viability ([2]; first compound 31.62 µM) | relative viability ([2]; first compound 100 µM) | relative viability ([2]; first compound 316.23 µM) | relative viability ([2]; first compound 1000 µM) | relative viability ([3]; first compound 10 µM) | relative viability ([3]; first compound 31.62 µM) | relative viability ([3]; first compound 100 µM) | relative viability ([3]; first compound 316.23 µM) | relative viability ([3]; first compound 1000 µM) | relative viability ([4]; first compound 0.08 µM) | relative viability ([4]; first compound 0.253 µM) | relative viability ([4]; first compound 0.8 µM) | relative viability ([4]; first compound 2.53 µM) | relative viability ([4]; first compound 8 µM)
1 | ChaGo-K-1 | 0.923 | 0.895 | 0.909 | 0.729 | 0.902 | 0.824 | 1.12 | 0.686 | 0.801 | 0.906 | 0.788 | 0.956 | 0.938 | 0.849 | 0.862 | 0.473 | 0.528 | 0.425 | 0.424 | 0.428
2 | NCI-H23 | 0.433 | 0.492 | 0.384 | 0.385 | 0.575 | 0.505 | 0.604 | 0.527 | 0.614 | 0.654 | 0.351 | 0.178 | 0.348 | 0.293 | 0.421 | 0.851 | 0.733 | 0.735 | 0.717 | 0.705
3 | NCI-H647 | 0.479 | 0.598 | 0.498 | 0.482 | 0.556 | 0.469 | 0.535 | 0.479 | 0.441 | 0.292 | 0.414 | 0.467 | 0.495 | 0.418 | 0.513 | 0.561 | 0.64 | 0.427 | 0.544 | 0.319
4 | LXF-289 | 0.645 | 0.658 | 0.641 | 0.602 | 0.602 | 0.73 | 0.685 | 0.746 | 0.661 | 0.76 | 1.05 | 1.02 | 1.01 | 1.05 | 1.07 | 0.543 | 0.527 | 0.519 | 0.496 | 0.468
5 | PC-3 [JPC-3] | 0.683 | 0.717 |  | 0.706 | 0.68 | 0.773 | 0.728 | 0.771 | 0.751 | 0.709 | 0.916 | 1.12 |  | 0.798 | 0.651 | 0.471 | 0.468 | 0.474 | 0.448 | 0.46
6 | H3255 | 0.587 | 0.789 | 0.648 | 0.57 | 0.508 | 0.388 | 0.53 | 0.4 | 0.46 | 0.478 | 0.898 | 0.853 | 0.814 | 0.845 | 0.738 | 0.393 | 0.398 | 0.343 | 0.358 | 0.32
7 | NCI-H2170 | 0.789 | 0.779 | 0.903 | 0.869 | 0.945 | 0.3 | 0.283 | 0.301 | 0.31 | 0.264 | 0.74 | 0.836 | 0.869 | 0.745 | 0.913 | 0.462 | 0.404 | 0.373 | 0.355 | 0.335
8 | NCI-H1651 | 0.908 | 0.999 | 1.01 | 0.903 | 1 | 0.762 | 0.887 | 0.674 | 0.883 | 0.876 | 0.467 | 0.519 | 0.495 | 0.473 | 0.587 | 0.319 | 0.322 | 0.309 | 0.288 | 0.316
9 | NCI-H1355 | 0.416 | 0.356 | 0.395 | 0.474 | 0.427 | 0.503 | 0.439 | 0.438 | 0.435 | 0.504 | 0.735 | 0.656 | 0.694 | 0.732 | 0.72 | 0.438 | 0.443 | 0.447 | 0.406 | 0.385
10 | HOP-62 | 0.409 | 0.497 | 0.427 | 0.364 | 0.485 | 0.739 | 0.656 | 0.786 | 0.531 | 0.657 | 0.248 | 0.41 | 0.416 | 0.325 | 0.492 | 0.646 | 0.646 | 0.638 | 0.625 | 0.577
11 | HCC-366 | 0.301 | 0.289 | 0.23 | 0.279 | 0.314 | 0.141 | 0.213 | 0.138 | 0.115 | 0.185 | 0.233 | 0.299 | 0.362 | 0.265 | 0.371 | 0.635 | 0.61 | 0.578 | 0.525 | 0.456
12 | BEN | 1.25 | 1.5 | 1.43 | 1.13 | 1.21 | 0.831 | 0.754 | 0.626 | 0.625 | 0.769 | 1.08 | 1.12 | 0.967 | 0.957 | 0.72 | 0.26 | 0.255 | 0.25 | 0.232 | 0.25
13 | NCI-H1793 | 0.432 | 0.454 | 0.413 | 0.45 | 0.507 | 0.29 | 0.399 | 0.304 | 0.268 | 0.38 | 0.535 | 0.47 | 0.784 | 0.396 | 0.505 | 0.352 | 0.318 | 0.327 | 0.224 | 0.189
14 | NCI-H838 | 0.557 | 0.572 | 0.541 | 0.525 | 0.579 | 0.535 | 0.543 | 0.477 | 0.494 | 0.682 | 0.972 | 0.947 | 0.989 | 0.99 | 0.94 | 0.716 | 0.686 | 0.521 | 0.507 | 0.518
15 | HCC-15 |  | 0.396 | 0.4 | 0.37 | 0.395 | 0.625 | 0.789 | 0.746 | 0.75 | 0.823 |  | 1.07 | 1.11 | 1 | 1.27 | 0.472 | 0.512 | 0.435 | 0.39 | 0.371
16 | NCI-H1666 | 0.687 | 0.676 | 0.759 | 0.771 | 0.941 | 0.481 | 0.536 | 0.352 | 0.356 | 0.467 | 0.897 | 0.993 | 0.98 | 0.869 | 1.1 | 0.567 | 0.572 | 0.6 | 0.53 | 0.564
